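Protocol summary: plate cells (96-well), add compound at 5 concentrations, incubate 48 h, interpolate endpoints linearly. Here, GI50 denotes the concentration required for 50% inhibition of growth. The concentration for full growth arrest is given as TGI.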
Tests used:
Assay in all cases: growth of human tumour cells (NCI), 48 h
786-0 renal = test system: 786-0 renal
A498 renal = test system: A498 renal
A549 NSCLC = test system: A549 NSCLC
ACHN renal = test system: ACHN renal
BT-549 breast = test system: BT-549 breast
CAKI-1 renal = test system: CAKI-1 renal
CCRF-CEM leukemia = test system: CCRF-CEM leukemia
COLO 205 colon = test system: COLO 205 colon
DU-145 prostate = test system: DU-145 prostate
EKVX NSCLC = test system: EKVX NSCLC
HCC-2998 colon = test system: HCC-2998 colon
HCT-116 colon = test system: HCT-116 colon
HCT-15 colon = test system: HCT-15 colon
HL-60(TB) leukemia = test system: HL-60(TB) leukemia
HOP-62 NSCLC = test system: HOP-62 NSCLC
HOP-92 NSCLC = test system: HOP-92 NSCLC
HS 578T breast = test system: HS 578T breast
HT29 colon = test system: HT29 colon
IGROV1 ovarian = test system: IGROV1 ovarian
K-562 leukemia = test system: K-562 leukemia
KM12 colon = test system: KM12 colon
LOX IMVI melanoma = test system: LOX IMVI melanoma
M14 melanoma = test system: M14 melanoma
MALME-3M melanoma = test system: MALME-3M melanoma
MCF7 breast = test system: MCF7 breast
MDA-MB-231 breast = test system: MDA-MB-231 breast
MDA-MB-435 = test system: MDA-MB-435
MOLT-4 leukemia = test system: MOLT-4 leukemia
NCI-H226 lung = test system: NCI-H226 lung
NCI-H23 lung = test system: NCI-H23 lung
NCI-H460 lung = test system: NCI-H460 lung
NCI-H522 lung = test system: NCI-H522 lung
NCI/ADR-RES ovarian = test system: NCI/ADR-RES ovarian
OVCAR-4 ovarian = test system: OVCAR-4 ovarian
OVCAR-5 ovarian = test system: OVCAR-5 ovarian
OVCAR-8 ovarian = test system: OVCAR-8 ovarian
PC-3 prostate = test system: PC-3 prostate
RPMI-8226 leukemia = test system: RPMI-8226 leukemia
RXF 393 renal = test system: RXF 393 renal
SF-268 CNS = test system: SF-268 CNS
SF-295 CNS = test system: SF-295 CNS
SF-539 CNS = test system: SF-539 CNS
SK-MEL-2 melanoma = test system: SK-MEL-2 melanoma
SK-MEL-28 melanoma = test system: SK-MEL-28 melanoma
SK-MEL-5 melanoma = test system: SK-MEL-5 melanoma
SK-OV-3 ovarian = test system: SK-OV-3 ovarian
SN12C renal = test system: SN12C renal
SNB-19 CNS = test system: SNB-19 CNS
SNB-75 CNS = test system: SNB-75 CNS
SW-620 colon = test system: SW-620 colon
T-47D breast = test system: T-47D breast
TK-10 renal = test system: TK-10 renal
U251 CNS = test system: U251 CNS
UACC-257 melanoma = test system: UACC-257 melanoma
UACC-62 melanoma = test system: UACC-62 melanoma
UO-31 renal = test system: UO-31 renal

With CS(=O)(=O)Nc1cc(-c2ccc3ncc(C#N)c(Nc4cccc(Cl)c4F)c3c2)cnc1Cl the GI50 (786-0 renal) was 366 nM, the TGI (786-0 renal) was 3550 nM and the GI50 (A498 renal) was 93.7 nM. It also gave a TGI (A498 renal) of 471 nM, a GI50 (A549 NSCLC) of 763 nM and a TGI (A549 NSCLC) of 2840 nM. It also gave a GI50 (ACHN renal) of 591 nM, a TGI (ACHN renal) of 21200 nM and a GI50 (BT-549 breast) of 56 nM. For the same compound, the TGI (BT-549 breast) was 959 nM, the GI50 (CAKI-1 renal) was 72.9 nM and the TGI (CAKI-1 renal) was 1590 nM. For the same compound, the GI50 (CCRF-CEM leukemia) was 90.6 nM, the TGI (CCRF-CEM leukemia) was over 39900 nM and the GI50 (COLO 205 colon) was 219 nM. For the same compound, the TGI (COLO 205 colon) was 955 nM, the GI50 (DU-145 prostate) was 289 nM and the TGI (DU-145 prostate) was 5460 nM. For the same compound, the GI50 (EKVX NSCLC) was 367 nM, the TGI (EKVX NSCLC) was 2630 nM and the GI50 (HCC-2998 colon) was 507 nM. The TGI (HCC-2998 colon) was 2190 nM, the GI50 (HCT-116 colon) was 66.5 nM and the TGI (HCT-116 colon) was 1140 nM. The GI50 (HCT-15 colon) was 111 nM, the TGI (HCT-15 colon) was 2870 nM and the GI50 (HL-60(TB) leukemia) was 94 nM. The GI50 (HOP-62 NSCLC) was 198 nM, the TGI (HOP-62 NSCLC) was 7800 nM and the GI50 (HOP-92 NSCLC) was 21.9 nM. For the same compound, the TGI (HOP-92 NSCLC) was 348 nM, the GI50 (HS 578T breast) was 56.7 nM and the TGI (HS 578T breast) was 537 nM. For the same compound, the GI50 (HT29 colon) was 329 nM, the TGI (HT29 colon) was 2320 nM and the GI50 (IGROV1 ovarian) was 101 nM. For the same compound, the TGI (IGROV1 ovarian) was 869 nM, the GI50 (K-562 leukemia) was 115 nM and the TGI (K-562 leukemia) was over 100000 nM. It also gave a GI50 (KM12 colon) of 324 nM, a TGI (KM12 colon) of 2090 nM and a GI50 (LOX IMVI melanoma) of 107 nM. For the same compound, the TGI (LOX IMVI melanoma) was 641 nM, the GI50 (M14 melanoma) was 308 nM and the TGI (M14 melanoma) was 3580 nM. It also gave a GI50 (MALME-3M melanoma) of 68.3 nM, a TGI (MALME-3M melanoma) of 708 nM and a GI50 (MCF7 breast) of 64.3 nM. The TGI (MCF7 breast) was 4030 nM, the GI50 (MDA-MB-231 breast) was 333 nM and the TGI (MDA-MB-231 breast) was 2310 nM. It also gave a GI50 (MDA-MB-435) of 277 nM, a TGI (MDA-MB-435) of 3000 nM and a GI50 (MOLT-4 leukemia) of 82.3 nM. For the same compound, the TGI (MOLT-4 leukemia) was 1580 nM, the GI50 (NCI-H226 lung) was 556 nM and the TGI (NCI-H226 lung) was 11100 nM. It also gave a GI50 (NCI-H23 lung) of 158 nM, a TGI (NCI-H23 lung) of 9360 nM and a GI50 (NCI-H460 lung) of 391 nM. For the same compound, the TGI (NCI-H460 lung) was 10900 nM, the GI50 (NCI-H522 lung) was 255 nM and the TGI (NCI-H522 lung) was 2670 nM. It also gave a GI50 (NCI/ADR-RES ovarian) of 1250 nM, a TGI (NCI/ADR-RES ovarian) of 20700 nM and a GI50 (OVCAR-4 ovarian) of 495 nM. It also gave a TGI (OVCAR-4 ovarian) of 8090 nM, a GI50 (OVCAR-5 ovarian) of 749 nM and a TGI (OVCAR-5 ovarian) of 3920 nM. The GI50 (OVCAR-8 ovarian) was 369 nM, the TGI (OVCAR-8 ovarian) was 4230 nM and the GI50 (PC-3 prostate) was 260 nM. The TGI (PC-3 prostate) was 3600 nM, the GI50 (RPMI-8226 leukemia) was 94.7 nM and the TGI (RPMI-8226 leukemia) was 1170 nM. It also gave a GI50 (RXF 393 renal) of 76.8 nM, a TGI (RXF 393 renal) of 910 nM and a GI50 (SF-268 CNS) of 87.6 nM. It also gave a TGI (SF-268 CNS) of 1810 nM, a GI50 (SF-295 CNS) of 267 nM and a TGI (SF-295 CNS) of 3250 nM. For the same compound, the GI50 (SF-539 CNS) was 181 nM, the TGI (SF-539 CNS) was 2860 nM and the GI50 (SK-MEL-2 melanoma) was 29.2 nM. For the same compound, the TGI (SK-MEL-2 melanoma) was 177 nM, the GI50 (SK-MEL-28 melanoma) was 189 nM and the TGI (SK-MEL-28 melanoma) was 2820 nM. The GI50 (SK-MEL-5 melanoma) was 49.2 nM, the TGI (SK-MEL-5 melanoma) was 182 nM and the GI50 (SK-OV-3 ovarian) was 360 nM. The TGI (SK-OV-3 ovarian) was 2610 nM, the GI50 (SN12C renal) was 152 nM and the TGI (SN12C renal) was 39400 nM. The GI50 (SNB-19 CNS) was 288 nM, the TGI (SNB-19 CNS) was 3110 nM and the GI50 (SNB-75 CNS) was under 13.1 nM. It also gave a TGI (SNB-75 CNS) of 395 nM, a GI50 (SW-620 colon) of 73.3 nM and a TGI (SW-620 colon) of 1820 nM. The GI50 (T-47D breast) was 101 nM, the TGI (T-47D breast) was 4790 nM and the GI50 (TK-10 renal) was 84.7 nM. The TGI (TK-10 renal) was 926 nM, the GI50 (U251 CNS) was 59.1 nM and the TGI (U251 CNS) was 1280 nM. For the same compound, the GI50 (UACC-257 melanoma) was 400 nM, the TGI (UACC-257 melanoma) was 4540 nM and the GI50 (UACC-62 melanoma) was 120 nM. It also gave a TGI (UACC-62 melanoma) of 1580 nM, a GI50 (UO-31 renal) of 205 nM and a TGI (UO-31 renal) of 2920 nM.
